Reference: US10597388B2, “Pyridazinone herbicides” (FMC CORPORATION, priority 2014, dated 2020)

Columns and labels:
Test in all cases: Test C greenhouse herbicide test, pre- and postemergence
Assay type in all cases: in vivo
[1] = test system: blackgrass (Alopecurus myosuroides)
How it was run: (§1)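 Visual 0–100 injury score (100 = complete control) taken against untreated controls after 13–15 d in greenhouse. Test chemicals, formulated in solvent plus surfactant, applied preemergence to seeds in loam–sand soil or postemergence to 1- to 4-leaf plants (2–18 cm).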

[2] = test system: crabgrass, large (large crabgrass, Digitaria sanguinalis)
How it was run: as §1

[3] = test system: pigweed (Amaranthus retroflexus)
How it was run: as §1

[4] = test system: morningglory (Ipomoea coccinea)
How it was run: as §1

[5] = test system: velvetleaf (Abutilon theophrasti)
How it was run: as §1

[6] = test system: ragweed (common ragweed, Ambrosia elatior)
How it was run: as §1

[7] = test system: johnsongrass (Sorghum halepense)
How it was run: as §1

[8] = test system: oilseed rape (Brassica napus)
How it was run: as §1

[9] = test system: barnyardgrass (Echinochloa crus-galli)
How it was run: as §1

[10] = test system: foxtail, giant (giant foxtail, Setaria faberii)
How it was run: as §1

[11] = test system: galium (catchweed bedstraw, Galium aparine); settings: for Plant response rating, Galium: Postemergence
How it was run: as §1

[12] = test system: nutsedge, yellow (yellow nutsedge, Cyperus esculentus)
How it was run: as §1

[13] = test system: ryegrass, Italian (Italian ryegrass, Lolium multiflorum)
How it was run: as §1

corn (Zea mays) = test system: corn (Zea mays)
How it was run: as §1

[14] = test system: lambsquarters (Chenopodium album)
How it was run: as §1

[15] = test system: waterhemp (common waterhemp, Amaranthus rudis)
How it was run: as §1

[16] = Postemergence, 31 g ai/ha, 0 to 100 scale (0 no effect, 100 complete control)
[17] = Postemergence, 125 g ai/ha, scale 0 to 100, 0 is no effect, 100 is complete control
[18] = Postemergence, 250 g ai/ha, scale 0 to 100, 0 no effect, 100 complete control, 13 to 15 d
[19] = Preemergence, 31 g ai/ha, scale 0 to 100, 0 is no effect, 100 is complete control
[20] = Preemergence, 62 g ai/ha, scale 0 to 100, 0 is no effect, 100 is complete control
[21] = Preemergence, 125 g ai/ha, scale 0 to 100, 0 is no effect, 100 is complete control
[22] = Preemergence, 250 g ai/ha, scale 0 to 100 (0 no effect, 100 complete control)
[23] = postemergence, 62 g ai/ha, scale 0 to 100, 0 no effect, 100 complete control

CC(=O)Oc1c(C)nn(C)c(=O)c1-c1ccc(F)c2ccccc12 [Compound 90]
Blackgrass plant response rating [1, 16]: 10 | Plant response rating, Blackgrass [1, 17]: 25 | Plant response rating, Blackgrass [1, 18]: 40 | Plant response rating, Blackgrass [1, 19]: 25 | Plant response rating, Blackgrass [1, 20]: 40 | Plant response rating, Blackgrass [1, 21]: 50 | Blackgrass plant response rating [1, 22]: 55 | Blackgrass plant response rating [1, 23]: 15 | Plant response rating, Crabgrass, Large [2, 17]: 35 | Plant response rating, Crabgrass, Large [2, 18]: 75 | Plant response rating, Crabgrass, Large [2, 19]: 35 | Plant response rating, Crabgrass, Large [2, 20]: 70 | Plant response rating, Crabgrass, Large [2, 21]: 75 | Crabgrass, Large plant response rating [2, 22]: 85 | Crabgrass, Large plant response rating [2, 23]: 15 | Plant response rating, Pigweed [3, 17]: 95 | Plant response rating, Pigweed [3, 18]: 100 | Plant response rating, Pigweed [3, 19]: 100 | Plant response rating, Pigweed [3, 20]: 100 | Plant response rating, Pigweed [3, 21]: 100 | Pigweed plant response rating [3, 22]: 100 | Pigweed plant response rating [3, 23]: 80 | Plant response rating, Morningglory [4, 17]: 100 | Plant response rating, Morningglory [4, 18]: 100 | Plant response rating, Morningglory [4, 19]: 85 | Plant response rating, Morningglory [4, 20]: 85 | Plant response rating, Morningglory [4, 21]: 98 | Morningglory plant response rating [4, 22]: 98 | Morningglory plant response rating [4, 23]: 100 | Plant response rating, Velvetleaf [5, 17]: 98 | Plant response rating, Velvetleaf [5, 18]: 98 | Plant response rating, Velvetleaf [5, 19]: 85 | Plant response rating, Velvetleaf [5, 20]: 90 | Plant response rating, Velvetleaf [5, 21]: 95 | Velvetleaf plant response rating [5, 22]: 95 | Velvetleaf plant response rating [5, 23]: 75 | Plant response rating, Ragweed [6, 17]: 95 | Plant response rating, Ragweed [6, 18]: 100 | Plant response rating, Ragweed [6, 19]: 80 | Plant response rating, Ragweed [6, 20]: 90 | Plant response rating, Ragweed [6, 21]: 85 | Ragweed plant response rating [6, 22]: 95 | Ragweed plant response rating [6, 23]: 85 | Plant response rating, Johnsongrass [7, 17]: 10 | Plant response rating, Johnsongrass [7, 18]: 20 | Plant response rating, Johnsongrass [7, 19]: 50 | Plant response rating, Johnsongrass [7, 20]: 55 | Plant response rating, Johnsongrass [7, 21]: 60 | Johnsongrass plant response rating [7, 22]: 65 | Johnsongrass plant response rating [7, 23]: 10 | Plant response rating, Oilseed Rape [8, 17]: 0 | Plant response rating, Oilseed Rape [8, 18]: 5 | Plant response rating, Oilseed Rape [8, 19]: 30 | Plant response rating, Oilseed Rape [8, 20]: 35 | Plant response rating, Oilseed Rape [8, 21]: 50 | Oilseed Rape plant response rating [8, 22]: 90 | Oilseed Rape plant response rating [8, 23]: 0 | Barnyardgrass plant response rating [9, 16]: 30 | Plant response rating, Barnyardgrass [9, 17]: 50 | Plant response rating, Barnyardgrass [9, 18]: 70 | Plant response rating, Barnyardgrass [9, 19]: 35 | Plant response rating, Barnyardgrass [9, 20]: 65 | Plant response rating, Barnyardgrass [9, 21]: 75 | Barnyardgrass plant response rating [9, 22]: 95 | Barnyardgrass plant response rating [9, 23]: 35 | Plant response rating, Foxtail, Giant [10, 17]: 55 | Plant response rating, Foxtail, Giant [10, 18]: 75 | Plant response rating, Foxtail, Giant [10, 19]: 75 | Plant response rating, Foxtail, Giant [10, 20]: 75 | Plant response rating, Foxtail, Giant [10, 21]: 90 | Foxtail, Giant plant response rating [10, 22]: 95 | Foxtail, Giant plant response rating [10, 23]: 25 | Plant response rating, Galium ([11]; 125 g ai/ha, scale 0 to 100, 0 is no effect, 100 is complete control): 95 | Plant response rating, Galium ([11]; 250 g ai/ha, scale 0 to 100, 0 no effect, 100 complete control, 13 to 15 d): 95 | Galium plant response rating [11, 23]: 95 | Plant response rating, Nutsedge, Yellow [12, 17]: 90 | Plant response rating, Nutsedge, Yellow [12, 18]: 85 | Plant response rating, Nutsedge, Yellow [12, 19]: 55 | Plant response rating, Nutsedge, Yellow [12, 20]: 45 | Plant response rating, Nutsedge, Yellow [12, 21]: 85 | Nutsedge, Yellow plant response rating [12, 22]: 90 | Nutsedge, Yellow plant response rating [12, 23]: 80 | Plant response rating, Ryegrass, Italian [13, 17]: 90 | Plant response rating, Ryegrass, Italian [13, 18]: 90 | Plant response rating, Ryegrass, Italian [13, 19]: 90 | Plant response rating, Ryegrass, Italian [13, 20]: 95 | Plant response rating, Ryegrass, Italian [13, 21]: 95 | Ryegrass, Italian plant response rating [13, 22]: 95 | Ryegrass, Italian plant response rating [13, 23]: 90 | Corn plant response rating (corn (Zea mays); [16]): 5 | Plant response rating, Corn (corn (Zea mays); [17]): 10 | Plant response rating, Corn (corn (Zea mays); [18]): 25 | Plant response rating, Corn (corn (Zea mays); [19]): 0 | Plant response rating, Corn (corn (Zea mays); [20]): 0 | Plant response rating, Corn (corn (Zea mays); [21]): 5 | Corn plant response rating (corn (Zea mays); [22]): 30 | Corn plant response rating (corn (Zea mays); [23]): 10 | Plant response rating, Lambsquarters [14, 17]: 98 | Plant response rating, Lambsquarters [14, 18]: 100 | Plant response rating, Lambsquarters [14, 19]: 75 | Plant response rating, Lambsquarters [14, 20]: 80 | Plant response rating, Lambsquarters [14, 21]: 85 | Lambsquarters plant response rating [14, 22]: 100 | Lambsquarters plant response rating [14, 23]: 98 | Plant response rating, Waterhemp [15, 17]: 100 | Plant response rating, Waterhemp [15, 18]: 100 | Plant response rating, Waterhemp [15, 19]: 75 | Plant response rating, Waterhemp [15, 20]: 90 | Plant response rating, Waterhemp [15, 21]: 100 | Waterhemp plant response rating [15, 22]: 100 | Waterhemp plant response rating [15, 23]: 100
